# Experimental data published in ChEMBL document CHEMBL2046359, “Novel tricyclic indeno[2,1-d]pyrimidines with dual antiangiogenic and cytotoxic activities as potent antitumor agents” (Bioorg Med Chem, 2012).
# Calls of active or inactive are those of the source. No cut-off for these calls is given here.
# Tests used:
# [1] = molecular target: Epidermal growth factor receptor (Homo sapiens, UniProt P00533); format: cell-based, A-431
# A-431 = assay: Antiproliferative activity against human A431 cells after 48 hrs by CYQUANT assay; format: functional, cell-based; conditions: A-431, 48 h
# [2] = molecular target: Dihydroorotate dehydrogenase (quinone), mitochondrial (Homo sapiens, UniProt Q02127); assay: Inhibition of human DHODH
# [3] = molecular target: T1, Dihydroorotate dehydrogenase (Plasmodium falciparum, UniProt Q54A96); assay: Inhibition of Plasmodium falciparum DHODH
# T1 sequence (Q54A96 whole entry): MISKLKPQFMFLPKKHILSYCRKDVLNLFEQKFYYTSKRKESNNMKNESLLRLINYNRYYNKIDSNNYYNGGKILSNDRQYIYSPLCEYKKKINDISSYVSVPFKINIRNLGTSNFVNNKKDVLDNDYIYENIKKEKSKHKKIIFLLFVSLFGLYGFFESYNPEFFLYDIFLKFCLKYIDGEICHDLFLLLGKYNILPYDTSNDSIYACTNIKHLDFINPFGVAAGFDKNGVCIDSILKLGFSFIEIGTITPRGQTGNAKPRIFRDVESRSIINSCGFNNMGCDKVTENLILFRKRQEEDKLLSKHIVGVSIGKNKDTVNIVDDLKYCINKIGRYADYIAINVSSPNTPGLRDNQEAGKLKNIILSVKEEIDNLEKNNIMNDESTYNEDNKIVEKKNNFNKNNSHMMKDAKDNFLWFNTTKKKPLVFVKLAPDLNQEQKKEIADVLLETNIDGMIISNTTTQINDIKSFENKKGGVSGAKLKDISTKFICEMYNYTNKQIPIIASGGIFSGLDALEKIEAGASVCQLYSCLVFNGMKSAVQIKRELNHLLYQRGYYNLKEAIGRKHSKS
# [4] = molecular target: T2, Bifunctional dihydrofolate reductase-thymidylate synthase (Toxoplasma gondii, UniProt Q07422); assay: Inhibition of Toxoplasma gondii DHFR
# T2 sequence (Q07422 whole entry): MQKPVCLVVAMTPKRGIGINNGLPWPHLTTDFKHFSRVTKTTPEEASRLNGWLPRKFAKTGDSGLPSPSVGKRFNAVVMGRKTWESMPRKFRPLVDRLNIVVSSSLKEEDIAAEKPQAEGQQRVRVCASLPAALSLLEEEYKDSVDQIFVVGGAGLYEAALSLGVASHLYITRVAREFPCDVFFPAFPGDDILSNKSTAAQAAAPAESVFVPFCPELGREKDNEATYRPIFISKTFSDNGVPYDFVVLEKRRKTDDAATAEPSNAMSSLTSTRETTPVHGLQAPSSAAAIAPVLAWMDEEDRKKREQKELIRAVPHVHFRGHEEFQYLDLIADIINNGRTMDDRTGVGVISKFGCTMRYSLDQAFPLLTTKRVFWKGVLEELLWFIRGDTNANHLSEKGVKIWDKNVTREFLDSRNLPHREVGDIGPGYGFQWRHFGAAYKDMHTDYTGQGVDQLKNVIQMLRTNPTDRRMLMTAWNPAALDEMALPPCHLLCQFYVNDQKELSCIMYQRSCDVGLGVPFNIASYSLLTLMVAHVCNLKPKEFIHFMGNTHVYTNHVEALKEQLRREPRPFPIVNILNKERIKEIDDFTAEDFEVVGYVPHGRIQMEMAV
# Thymidylate synthase = Thymidylate synthase (Homo sapiens, UniProt P04818); assay: Inhibition of human thymidylate synthase
# [5] = Inhibition of Escherichia coli thymidylate synthase
# [6] = molecular target: T2, Bifunctional dihydrofolate reductase-thymidylate synthase; assay: Inhibition of Toxoplasma gondii thymidylate synthase
# Dihydrofolate reductase = molecular target: T3, Dihydrofolate reductase (Homo sapiens, UniProt P00374)
# T3 sequence (P00374 whole entry): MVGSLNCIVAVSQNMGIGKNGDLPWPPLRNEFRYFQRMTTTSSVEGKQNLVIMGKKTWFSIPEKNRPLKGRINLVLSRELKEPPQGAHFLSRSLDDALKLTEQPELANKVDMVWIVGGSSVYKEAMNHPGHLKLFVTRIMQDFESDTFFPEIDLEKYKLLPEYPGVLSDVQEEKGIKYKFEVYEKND
# [7] = molecular target: Vascular endothelial growth factor receptor 2 (Homo sapiens, UniProt P35968); format: cell-based, U-251
# Mus musculus [8] = assay: Toxicity in NCr nu/nu mouse allografted with mouse B16F10 cells assessed as weight loss at 35 mg/kg, ip administered three times a week for 4 weeks; format: organism-based, B16-F10; parameters: dose 35 mg/kg, route intraperitoneal; conditions: in vivo, 672 h
# Mus musculus [9] = assay: Toxicity in NCr nu/nu mouse allografted with mouse B16F10 cells at 35 mg/kg, ip administered three times a week for 4 weeks; format: organism-based, B16-F10; parameters: dose 35 mg/kg, route intraperitoneal; conditions: in vivo, 672 h
# CCRF-CEM = assay: cells; conditions: Homo sapiens
# HL-60(TB) = assay: cells; conditions: Homo sapiens
# K562 = assay: cells; conditions: Homo sapiens
# MOLT-4 = assay: cells; conditions: Homo sapiens
# RPMI-8226 = assay: cells; conditions: Homo sapiens
# SR = assay: cells; conditions: Homo sapiens
# A549 = assay: cells; conditions: Homo sapiens
# EKVX = assay: cells; conditions: Homo sapiens
# HOP-62 = assay: cells; conditions: Homo sapiens
# HOP-92 = assay: cells; conditions: Homo sapiens
# NCI-H226 = assay: cells; conditions: Homo sapiens
# NCI-H23 = assay: cells; conditions: Homo sapiens
# NCI-H322M = assay: cells; conditions: Homo sapiens
# NCI-H460 = assay: cells; conditions: Homo sapiens
# NCI-H522 = assay: cells; conditions: Homo sapiens
# COLO 205 = assay: cells; conditions: Homo sapiens
# HCT-116 = assay: cells; conditions: Homo sapiens
# HCT-15 = assay: cells; conditions: Homo sapiens
# KM12 = assay: cells; conditions: Homo sapiens
# SW-620 = assay: cells; conditions: Homo sapiens
# SF-268 = assay: cells; conditions: Homo sapiens
# SF-295 = assay: cells; conditions: Homo sapiens
# SF-539 = assay: cells; conditions: Homo sapiens
# SNB-19 = assay: cells; conditions: Homo sapiens
# SNB-75 = assay: cells; conditions: Homo sapiens
# U-251 = assay: cells; conditions: Homo sapiens
# PC-3 = assay: cells; conditions: Homo sapiens
# DU-145 = assay: cells; conditions: Homo sapiens
# LOX IMVI = assay: cells; conditions: Homo sapiens
# Malme-3M = assay: cells; conditions: Homo sapiens
# M14 = assay: cells; conditions: Homo sapiens
# SK-MEL-2 = assay: cells; conditions: Homo sapiens
# SK-MEL-28 = assay: cells; conditions: Homo sapiens
# SK-MEL-5 = assay: cells; conditions: Homo sapiens
# UACC-257 = assay: cells; conditions: Homo sapiens
# UACC-62 = assay: cells; conditions: Homo sapiens
# IGROV-1 = assay: cells; conditions: Homo sapiens
# OVCAR-3 = assay: cells; conditions: Homo sapiens
# OVCAR-4 = assay: cells; conditions: Homo sapiens
# OVCAR-8 = assay: cells; conditions: Homo sapiens
# SK-OV-3 = assay: cells; conditions: Homo sapiens
# 786-0 = assay: cells; conditions: Homo sapiens
# A498 = assay: cells; conditions: Homo sapiens
# ACHN = assay: cells; conditions: Homo sapiens
# CAKI-1 = assay: cells; conditions: Homo sapiens
# RXF 393 = assay: cells; conditions: Homo sapiens
# SN12C = assay: cells; conditions: Homo sapiens
# TK-10 = assay: cells; conditions: Homo sapiens
# UO-31 = assay: cells; conditions: Homo sapiens
# MCF7 = assay: cells; conditions: Homo sapiens
# cells [10] = conditions: Homo sapiens, NCI/ADR-RES
# MDA-MB-231 = assay: cells; conditions: Homo sapiens
# cells [11] = conditions: Homo sapiens, Hs-578T
# MDA-MB-435 = assay: cells; conditions: Homo sapiens
# BT-549 = assay: cells; conditions: Homo sapiens
# T47D = assay: cells; conditions: Homo sapiens
# B16-F10 [12] = assay: Antitumor activity against mouse B16F10 cells allografted in NCr nu/nu mouse assessed as tumor growth reduction at 35 mg/kg, ip administered three times weekly for 2 weeks
# B16-F10 [13] = assay: Antitumor activity against mouse B16F10 cells allografted in NCr nu/nu mouse assessed as decrease in tumor metastasis at 35 mg/kg, ip administered three times weekly for 2 weeks
# B16-F10 [14] = assay: Antitumor activity against mouse B16F10 cells allografted in NCr nu/nu mouse assessed as inhibition of tumor angiogenesis at 35 mg/kg, ip administered three times weekly for 2 weeks
# [15] = molecular target: Platelet-derived growth factor receptor beta (Homo sapiens, UniProt P09619); assay: Inhibition of PDGFRbeta in human SF539 cells pretreated for 60 mins measured after 10 mins by ELISA
# Sequence of Platelet-derived growth factor receptor beta (P09619 whole entry): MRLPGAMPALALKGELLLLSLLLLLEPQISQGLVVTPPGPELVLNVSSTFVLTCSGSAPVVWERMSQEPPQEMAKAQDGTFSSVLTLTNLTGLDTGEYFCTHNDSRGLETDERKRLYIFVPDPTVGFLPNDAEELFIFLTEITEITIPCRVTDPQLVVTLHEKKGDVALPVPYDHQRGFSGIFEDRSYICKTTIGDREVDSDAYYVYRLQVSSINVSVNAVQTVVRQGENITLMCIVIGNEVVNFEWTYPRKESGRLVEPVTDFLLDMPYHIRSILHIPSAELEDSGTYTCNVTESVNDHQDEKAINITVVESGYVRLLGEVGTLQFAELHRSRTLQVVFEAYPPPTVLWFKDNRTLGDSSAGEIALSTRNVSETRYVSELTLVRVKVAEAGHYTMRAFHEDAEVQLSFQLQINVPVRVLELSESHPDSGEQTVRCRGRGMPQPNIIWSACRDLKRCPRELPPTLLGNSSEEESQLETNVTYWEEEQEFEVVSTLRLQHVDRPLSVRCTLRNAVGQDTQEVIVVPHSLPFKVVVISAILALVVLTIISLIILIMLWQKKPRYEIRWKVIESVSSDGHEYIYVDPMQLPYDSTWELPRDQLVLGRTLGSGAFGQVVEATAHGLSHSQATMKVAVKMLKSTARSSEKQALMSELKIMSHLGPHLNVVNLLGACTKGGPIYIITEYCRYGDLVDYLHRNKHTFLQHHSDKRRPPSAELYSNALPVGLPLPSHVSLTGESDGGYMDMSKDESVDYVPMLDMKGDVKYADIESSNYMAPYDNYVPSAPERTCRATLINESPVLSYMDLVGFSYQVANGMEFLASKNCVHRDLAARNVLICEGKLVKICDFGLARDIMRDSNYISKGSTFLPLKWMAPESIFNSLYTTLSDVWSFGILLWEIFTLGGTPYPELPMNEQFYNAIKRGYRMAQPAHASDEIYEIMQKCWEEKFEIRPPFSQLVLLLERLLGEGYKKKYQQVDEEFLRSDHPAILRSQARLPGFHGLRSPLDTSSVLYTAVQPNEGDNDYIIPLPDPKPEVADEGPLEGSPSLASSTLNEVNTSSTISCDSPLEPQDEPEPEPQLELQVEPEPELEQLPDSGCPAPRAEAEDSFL
# Sequence of Thymidylate synthase (P04818 whole entry): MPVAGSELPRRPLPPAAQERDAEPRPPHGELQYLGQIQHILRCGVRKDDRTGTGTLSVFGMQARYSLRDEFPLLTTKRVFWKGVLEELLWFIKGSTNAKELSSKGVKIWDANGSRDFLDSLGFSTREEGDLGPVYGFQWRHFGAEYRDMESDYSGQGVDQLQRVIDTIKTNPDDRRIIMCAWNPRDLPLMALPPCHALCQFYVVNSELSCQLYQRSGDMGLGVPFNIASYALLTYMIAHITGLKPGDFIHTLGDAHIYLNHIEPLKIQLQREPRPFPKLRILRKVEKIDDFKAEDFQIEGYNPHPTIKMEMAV
# Sequence of Dihydroorotate dehydrogenase (quinone), mitochondrial (Q02127 whole entry): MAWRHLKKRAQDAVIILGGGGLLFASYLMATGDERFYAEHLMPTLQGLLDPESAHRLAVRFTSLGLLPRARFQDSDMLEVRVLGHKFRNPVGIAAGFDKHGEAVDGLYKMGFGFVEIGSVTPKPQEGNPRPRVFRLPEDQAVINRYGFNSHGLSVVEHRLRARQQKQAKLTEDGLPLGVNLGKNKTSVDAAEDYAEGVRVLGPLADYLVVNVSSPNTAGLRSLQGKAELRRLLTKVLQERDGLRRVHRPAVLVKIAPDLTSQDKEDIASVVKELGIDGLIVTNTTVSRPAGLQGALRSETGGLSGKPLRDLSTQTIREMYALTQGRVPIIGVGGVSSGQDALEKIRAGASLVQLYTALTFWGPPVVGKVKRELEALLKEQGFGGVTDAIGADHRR
# Sequence of Vascular endothelial growth factor receptor 2 (P35968 whole entry): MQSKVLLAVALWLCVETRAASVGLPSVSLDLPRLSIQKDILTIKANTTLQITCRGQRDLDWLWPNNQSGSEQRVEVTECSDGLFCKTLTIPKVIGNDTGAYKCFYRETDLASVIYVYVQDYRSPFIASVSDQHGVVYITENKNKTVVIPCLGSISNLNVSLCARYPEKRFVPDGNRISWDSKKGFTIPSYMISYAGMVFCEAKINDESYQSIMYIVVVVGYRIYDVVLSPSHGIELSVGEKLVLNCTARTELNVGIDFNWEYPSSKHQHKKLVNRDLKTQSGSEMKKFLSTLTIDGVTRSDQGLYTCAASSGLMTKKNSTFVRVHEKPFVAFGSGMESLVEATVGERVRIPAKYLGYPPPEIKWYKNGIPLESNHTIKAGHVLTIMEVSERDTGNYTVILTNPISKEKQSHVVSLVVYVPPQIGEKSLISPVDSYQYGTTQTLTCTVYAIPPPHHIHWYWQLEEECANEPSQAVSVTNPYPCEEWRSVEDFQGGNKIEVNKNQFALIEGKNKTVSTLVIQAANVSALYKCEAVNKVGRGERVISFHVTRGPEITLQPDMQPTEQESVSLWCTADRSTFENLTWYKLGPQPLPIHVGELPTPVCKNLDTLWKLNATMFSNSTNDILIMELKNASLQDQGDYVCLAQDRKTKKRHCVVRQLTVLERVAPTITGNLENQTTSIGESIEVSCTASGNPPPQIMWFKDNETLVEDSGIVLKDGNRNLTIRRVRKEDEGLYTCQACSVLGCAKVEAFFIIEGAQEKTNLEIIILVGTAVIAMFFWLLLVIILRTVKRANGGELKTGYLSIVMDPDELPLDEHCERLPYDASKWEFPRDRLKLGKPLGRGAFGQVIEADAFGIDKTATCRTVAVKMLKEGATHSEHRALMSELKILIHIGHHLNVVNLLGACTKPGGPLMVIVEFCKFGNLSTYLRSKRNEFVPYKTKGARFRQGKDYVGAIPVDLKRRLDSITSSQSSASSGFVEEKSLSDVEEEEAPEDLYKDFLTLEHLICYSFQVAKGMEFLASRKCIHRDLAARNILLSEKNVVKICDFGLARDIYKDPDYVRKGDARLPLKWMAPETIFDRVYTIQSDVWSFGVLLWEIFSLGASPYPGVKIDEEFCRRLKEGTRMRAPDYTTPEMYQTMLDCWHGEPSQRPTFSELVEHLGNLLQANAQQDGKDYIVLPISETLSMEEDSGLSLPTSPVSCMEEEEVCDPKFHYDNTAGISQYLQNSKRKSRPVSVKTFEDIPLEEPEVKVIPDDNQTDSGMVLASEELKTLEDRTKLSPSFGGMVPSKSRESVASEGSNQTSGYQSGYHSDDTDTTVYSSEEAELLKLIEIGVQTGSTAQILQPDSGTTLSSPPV
# Sequence of Epidermal growth factor receptor (P00533 whole entry): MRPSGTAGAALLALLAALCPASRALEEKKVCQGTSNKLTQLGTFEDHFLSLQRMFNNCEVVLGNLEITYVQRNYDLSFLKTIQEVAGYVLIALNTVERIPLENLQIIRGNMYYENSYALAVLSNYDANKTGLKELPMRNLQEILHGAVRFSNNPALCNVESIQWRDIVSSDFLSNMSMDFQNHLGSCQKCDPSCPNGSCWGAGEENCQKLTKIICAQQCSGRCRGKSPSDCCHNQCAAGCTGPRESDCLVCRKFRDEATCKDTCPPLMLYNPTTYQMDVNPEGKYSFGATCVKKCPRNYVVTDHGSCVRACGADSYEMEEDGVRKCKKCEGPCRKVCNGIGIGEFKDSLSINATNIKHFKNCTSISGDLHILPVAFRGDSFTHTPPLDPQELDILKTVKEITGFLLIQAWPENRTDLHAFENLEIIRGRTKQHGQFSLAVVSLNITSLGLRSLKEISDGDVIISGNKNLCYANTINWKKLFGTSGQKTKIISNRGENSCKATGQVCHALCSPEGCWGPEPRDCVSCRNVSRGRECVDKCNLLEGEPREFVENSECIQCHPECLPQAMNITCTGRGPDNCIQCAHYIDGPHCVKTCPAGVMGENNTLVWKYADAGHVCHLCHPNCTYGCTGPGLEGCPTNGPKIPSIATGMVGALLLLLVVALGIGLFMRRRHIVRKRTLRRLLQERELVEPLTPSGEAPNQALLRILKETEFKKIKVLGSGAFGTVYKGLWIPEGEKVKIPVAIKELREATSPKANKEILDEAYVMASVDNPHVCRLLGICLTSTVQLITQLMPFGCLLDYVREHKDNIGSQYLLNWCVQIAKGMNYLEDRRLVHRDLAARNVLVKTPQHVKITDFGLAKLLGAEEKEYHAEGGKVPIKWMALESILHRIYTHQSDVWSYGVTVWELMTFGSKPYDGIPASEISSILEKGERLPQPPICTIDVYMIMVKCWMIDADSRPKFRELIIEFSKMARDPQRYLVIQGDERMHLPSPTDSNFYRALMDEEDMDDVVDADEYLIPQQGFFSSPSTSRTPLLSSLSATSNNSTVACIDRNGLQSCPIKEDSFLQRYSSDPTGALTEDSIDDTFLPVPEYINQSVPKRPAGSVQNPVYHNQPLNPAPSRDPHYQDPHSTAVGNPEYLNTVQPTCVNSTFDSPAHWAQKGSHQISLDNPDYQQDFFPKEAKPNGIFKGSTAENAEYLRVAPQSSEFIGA
smiles,measurement,setting,value
COc1cccc(Nc2nc(N)nc3c2-c2ccccc2C3)c1,IC50,[1],> 200000 nM
same,IC50,A-431,13900 nM
same,IC50,[2],> 200000 nM
same,IC50,[3],> 200000 nM
Nc1nc2c(c(Nc3ccc(Cl)cc3F)n1)-c1ccccc1C2,IC50,A-431,9700 nM
same,IC50,[4],> 16000 nM
same,IC50,Thymidylate synthase,> 13000 nM
same,IC50,[5],> 13000 nM
same,IC50,[6],> 13000 nM
same,IC50,[2],> 200000 nM
same,IC50,[3],> 200000 nM
same,IC50,Dihydrofolate reductase,> 16000 nM
Nc1nc2c(c(Nc3cccc(Br)c3)n1)-c1ccccc1C2,IC50,[7],> 200000 nM
same,IC50,A-431,> 500000 nM
same,IC50,[4],> 14000 nM
same,IC50,Thymidylate synthase,> 12000 nM
same,IC50,[5],> 12000 nM
same,IC50,[6],> 12000 nM
same,IC50,[2],> 200000 nM
same,IC50,[3],> 200000 nM
same,IC50,Dihydrofolate reductase,> 14000 nM
Nc1nc2c(c(Nc3ccc(Cl)cc3)n1)-c1ccccc1C2,IC50,[7],> 200000 nM
same,IC50,A-431,9700 nM
same,IC50,[4],> 16000 nM
same,IC50,Thymidylate synthase,> 14000 nM
same,IC50,[5],> 14000 nM
same,IC50,[6],> 14000 nM
same,IC50,[2],> 200000 nM
same,IC50,[3],> 200000 nM
same,Activity,Mus musculus [8],Non-toxic
same,Activity,Mus musculus [9],Non-toxic
same,IC50,Dihydrofolate reductase,> 16000 nM
same,GI50,CCRF-CEM,31.2 nM
same,GI50,HL-60(TB),150 nM
same,GI50,K562,366 nM
same,GI50,MOLT-4,66.1 nM
same,GI50,RPMI-8226,489 nM
same,GI50,SR,484 nM
same,GI50,A549,43.4 nM
same,GI50,EKVX,2710 nM
same,GI50,HOP-62,654 nM
same,GI50,HOP-92,18100 nM
same,GI50,NCI-H226,2140 nM
same,GI50,NCI-H23,565 nM
same,GI50,NCI-H322M,1350 nM
same,GI50,NCI-H460,19.3 nM
same,GI50,NCI-H522,622 nM
same,GI50,COLO 205,638 nM
same,GI50,HCT-116,38.1 nM
same,GI50,HCT-15,434 nM
same,GI50,KM12,330 nM
same,GI50,SW-620,63 nM
same,GI50,SF-268,86.2 nM
same,GI50,SF-295,547 nM
same,GI50,SF-539,381 nM
same,GI50,SNB-19,113 nM
same,GI50,SNB-75,5030 nM
same,GI50,U-251,184 nM
same,GI50,PC-3,715 nM
same,GI50,DU-145,212 nM
same,GI50,LOX IMVI,308 nM
same,GI50,Malme-3M,> 10000 nM
same,GI50,M14,431 nM
same,GI50,SK-MEL-2,558 nM
same,GI50,SK-MEL-28,1510 nM
same,GI50,SK-MEL-5,513 nM
same,GI50,UACC-257,84.5 nM
same,GI50,UACC-62,641 nM
same,GI50,IGROV-1,287 nM
same,GI50,OVCAR-3,216 nM
same,GI50,OVCAR-4,2090 nM
same,GI50,OVCAR-8,216 nM
same,GI50,SK-OV-3,2090 nM
same,GI50,786-0,514 nM
same,GI50,A498,2490 nM
same,GI50,ACHN,3420 nM
same,GI50,CAKI-1,1080 nM
same,GI50,RXF 393,2910 nM
same,GI50,SN12C,189 nM
same,GI50,TK-10,2150 nM
same,GI50,UO-31,790 nM
same,GI50,MCF7,73.4 nM
same,GI50,cells [10],787 nM
same,GI50,MDA-MB-231,641 nM
same,GI50,cells [11],2220 nM
same,GI50,MDA-MB-435,554 nM
same,GI50,BT-549,2830 nM
same,GI50,T47D,2900 nM
same,growth inhibition (GI),B16-F10 [12],Active
same,Activity,B16-F10 [13],inactive
same,Activity,B16-F10 [14],Active
Nc1nc2c(c(Nc3ccccc3)n1)-c1ccccc1C2,IC50,[1],> 200000 nM
same,IC50,A-431,4900 nM
same,IC50,[2],> 200000 nM
same,IC50,[3],> 200000 nM
CC(C)c1ccc(Nc2nc(N)nc3c2-c2ccccc2C3)cc1,IC50,A-431,126000 nM
same,IC50,[4],> 16000 nM
same,IC50,Thymidylate synthase,> 14000 nM
same,IC50,[5],> 14000 nM
same,IC50,[6],> 14000 nM
same,IC50,Dihydrofolate reductase,> 16000 nM
Nc1nc2c(c(Nc3cccc(Cl)c3)n1)-c1ccccc1C2,IC50,A-431,235000 nM
same,IC50,[15],> 500000 nM
